This note sets out measurements from PubChem BioAssay AID1996.

The structures appear in SMILES notation. Converted amounts (≈) assume the structure as drawn.

For the series the following is noted: buffer; pH 7.4; 200.0 µM.
For `CCC(C)C(=O)Nc1ccc(S(=O)(=O)N2CCCC2)cc1` (configuration not stated), the kinetic solubility (in general, the concentration staying in solution when a stock, usually in DMSO, is diluted into the medium) was 42.3 µg/mL (≈ 136 µM).

Regarding `Cc1cccc(NC(=O)CCCC(=O)OC(C)C(=O)c2ccccc2)c1` (configuration not stated), the solubility (kinetic) stood at 46.1 µg/mL (≈ 130 µM).

Compound `Cc1c(C(=O)N2CCCc3ccccc32)oc2ccccc12` came in with a solubility (kinetic) of 5.7 µg/mL (≈ 19.6 µM).

With `CSc1cccc(NC(=O)c2cccc3cccnc23)c1`, the kinetic solubility was 5.7 µg/mL (≈ 19.4 µM).

Compound `O=C(O)c1ccccc1C(=O)NCc1ccc2c(c1)OCO2` gave a kinetic solubility of 44.9 µg/mL (≈ 150 µM).

As for `Cc1ccc(CSCC(=O)NCc2ccc(F)cc2)cc1`, the solubility (kinetic) is 23.2 µg/mL (≈ 76.5 µM).

In turn, `COc1cc(C(=O)OCC(C)=O)cc(NC(=O)c2ccco2)c1OC` showed a solubility (kinetic) of 2.4 µg/mL (≈ 6.91 µM).

The compound `CCSc1nc(C)nc2sc(C)c(C)c12` had a kinetic solubility of under 0.3 µg/mL.

Take `CN(CC(=O)NCCc1ccccc1)Cc1ccco1`: the kinetic solubility was over 40.9 µg/mL.

`Cc1cc(C)nc(NC(=O)c2cccs2)n1`: the kinetic solubility was over 35 µg/mL.

In turn, `COc1ccc(NC2c3ccccc3C(=O)N2c2cccnc2)cc1` (configuration not stated) displayed a solubility (kinetic) of over 49.7 µg/mL.

`COc1ccc(CNC(=O)CCN2C(=S)NC(C)(C)CC2C)cc1` (configuration not stated) had a solubility (kinetic) of over 52.4 µg/mL.

`COc1cccc(CN(C)C(=O)c2cc(S(=O)(=O)NC3CCCCC3)ccc2C)c1` came in with a kinetic solubility of 45.3 µg/mL (≈ 105 µM).

In the case of `Cc1c(C(=O)C(=O)NCC2CCCO2)c2ccccc2n1C` (configuration not stated), the kinetic solubility was over 45.1 µg/mL.

In the case of `CC(=O)Nc1cc(O)cc(O)c1`, the kinetic solubility was over 25.1 µg/mL.

In turn, `CCOC(=O)c1sc(SC)nc1N` registered a solubility (kinetic) of 22.2 µg/mL (≈ 102 µM).

`CCCCCCc1ccc(OC(=O)c2ccncc2)cc1` came in with a solubility (kinetic) of 0.7 µg/mL (≈ 2.47 µM).

The compound `CCOC(Cn1cc(C)c(=O)[nH]c1=O)OCC` came in with a kinetic solubility of over 36.3 µg/mL.

`Cc1c(C(=O)N2CCN(S(=O)(=O)c3ccccc3)CC2)oc2ccc(Br)cc12` returned a solubility (kinetic) of 6.8 µg/mL (≈ 14.7 µM).

`CC(NC(=O)C(=O)NCCc1c[nH]c2ccccc12)c1ccccc1` (configuration not stated): the kinetic solubility is under 0.2 µg/mL.

Regarding `Cc1c(N2C(=O)c3cccc4cccc(c34)C2=O)cnn1C`, the solubility (kinetic) is over 43.7 µg/mL.

The compound `CC1(c2ccc(OC(F)F)cc2)NC(=O)N(CC(=O)NC2CCCC2)C1=O` (configuration not stated) yielded a solubility (kinetic) of over 57.2 µg/mL.

`Cc1cccc(NC(=O)NC2CCCCCCC2)c1C` gave a solubility (kinetic) of 0.6 µg/mL (≈ 2.19 µM).

`COc1cc(/C=C/C(=O)O)cc(S(=O)(=O)Nc2ccccc2C(=O)NCc2ccco2)c1OC` showed a kinetic solubility of over 73 µg/mL.

In turn, `Cc1ccc(OCCNC(=O)C(C)SCC(=O)Nc2ccc(F)cc2)cc1` (configuration not stated) had a kinetic solubility of 35 µg/mL (≈ 89.6 µM).

For the compound `COc1ccccc1CCNS(=O)(=O)c1ccc(C(=O)O)n1C`, the kinetic solubility is over 50.8 µg/mL.

Consider `COc1ccc(CCNC(=O)c2noc(C)c2[N+](=O)[O-])cc1OC`, for which the solubility (kinetic) is over 50.3 µg/mL.

`COC(=O)C(O)(c1ccc(NC(=O)c2ccccc2)cc1)C(F)(F)F` (configuration not stated) came in with a kinetic solubility of 42.9 µg/mL (≈ 121 µM).

The compound `CCC(=O)Oc1ccc(NC(=O)c2ccco2)cc1` displayed a kinetic solubility of over 38.9 µg/mL.

On to `O=C(COC(=O)COc1ccc(Cl)cc1)NC1CCCCCC1`, for which the solubility (kinetic) stood at 8.1 µg/mL (≈ 23.8 µM).

Consider `Fc1ccccc1NC(=S)Nc1ccc(CN2CCOCC2)cc1`, for which the solubility (kinetic) was determined as 49.4 µg/mL (≈ 143 µM).

`c1ccc(-c2cc(-c3ccccc3)ncn2)cc1` gave a kinetic solubility of 4.6 µg/mL (≈ 19.8 µM).

Turning to `COc1ccc(CNC(=O)CCSCc2cccc(F)c2)cc1`, the kinetic solubility is over 50 µg/mL.

For `Cc1ccc(S(=O)(=O)N2CCN(Cc3ccccc3)CC2)cc1`, the solubility (kinetic) was 5 µg/mL (≈ 15.1 µM).

Turning to `CN1CCN(C(=O)c2cc(=O)c3cc(Cl)ccc3o2)CC1`, the solubility (kinetic) is over 46 µg/mL.

The compound `COc1ccc(Cn2cnc3c4cc(F)ccc4n(C)c3c2=O)cc1` showed a kinetic solubility of under 0.2 µg/mL.

`Cc1cc(C)n2c(SCC(=O)Nc3cc(S(=O)(=O)N(C)C)ccc3C)nnc2n1` had a solubility (kinetic) of over 65.2 µg/mL.

Consider `COc1cccc(OC)c1CNC(=O)CCSCc1ccccc1F`, for which the solubility (kinetic) is 37.3 µg/mL (≈ 103 µM).

The compound `Cc1cc(/C=C(\C#N)C(=O)Nc2ccccc2F)c(C)[nH]1` came in with a solubility (kinetic) of 0.8 µg/mL (≈ 2.82 µM).

Take `N#CCNC(=O)C1CC(=O)N(CCc2ccc(F)cc2)C1` (configuration not stated): the kinetic solubility worked out at 39.7 µg/mL (≈ 137 µM).

`Cc1c(C)n2c3c(cccc13)CC2` yielded a kinetic solubility of 0.4 µg/mL (≈ 2.34 µM).

Consider `Cc1cccc(/C(N)=N/OC(=O)c2ccoc2C)c1`, for which the solubility (kinetic) is 38 µg/mL (≈ 147 µM).

Consider `Cl.c1ccc(CCNCc2cccs2)cc1`, for which the solubility (kinetic) came to 32.6 µg/mL.

Take `CC(C)N(Cc1ccc(F)cc1)C(=O)c1cc2ccccc2oc1=O`: the kinetic solubility was determined as 0.8 µg/mL (≈ 2.36 µM).

In turn, `Cc1cccc(C)c1NC(=O)CN(C)C(=O)C1CC1C` (configuration not stated) yielded a solubility (kinetic) of over 41.2 µg/mL.

In turn, `Cc1cc(C)c2nc(N(CCN(C)C)C(=O)c3ccc4ccccc4c3)sc2c1.Cl` came in with a kinetic solubility of 2.3 µg/mL.

As to `COc1cccc(N2CCN(C(=O)c3cc4cc(Cl)ccc4[nH]3)CC2)c1`, the kinetic solubility was 11.8 µg/mL (≈ 31.9 µM).

The compound `O=C(Nc1cccc(-c2nc3ccccc3[nH]2)c1)c1ccccn1` came in with a kinetic solubility of 6.2 µg/mL (≈ 19.7 µM).

`O=C(COC(=O)[C@@H]1CCCN1C(=O)c1cccs1)Nc1cccc(Cl)c1` showed a kinetic solubility of 26.9 µg/mL (≈ 68.5 µM).

Consider `O=C(Cn1cc([N+](=O)[O-])ccc1=O)NC1CCCCC1`, for which the solubility (kinetic) is over 41.9 µg/mL.

With `O=C(NCc1cc2ccccc2[nH]1)c1ccccc1F`, the solubility (kinetic) is over 40.2 µg/mL.

The compound `Cc1onc(-c2c(Cl)cccc2Cl)c1C(=O)N(C)Cc1ccccc1` had a kinetic solubility of 40.9 µg/mL (≈ 109 µM).
